Consider 1 compound from patent publication US20110046107A1, “SULFONYL-SUBSTITUTED CARBAPENEM COMPOUNDS” (priority 2007, published 2011).

The subject of one data set is Citrobacter freundii. Kind of data set: In vitro antibacterial activity, agar dilution method (clinical isolates). Format: cell-based. The conditions noted are these: clinically isolated strains, Gram-negative. From the text:
(§1) Bacterial strains for test: All the bacterial strains are clinical isolates and purchased from public organizations. methicillin-sensitive staphylococcus aureus (MS SA), methicillin-resistant staphylococcus aureus (MRSA), methicillin-sensitive staphylococcus epidermidis (MSSE), methicillin-resistant staphylococcus epidermidis (MRSE), streptococcus pyogenes, penicillin-sensitive streptococcus pneumoniae (PSSP), penicillin-resistant streptococcus pneumoniae (PRSP), Escherichia coli, Citrobacter freundii, Enterobacter cloacae, Hemophilus influenza, Klebsiella pneumonia (producing ESBL), Morganella morganii, Proteus mirabilis, Serratia marcescens, and Pseudomonas aeruginosa.
(§2) Drugs to be tested: compounds of the invention prepared in the examples; the chemical names, structural formulae, preparation materials, and preparation methods are provided in the preparation examples of the compounds;
(§3) Meropenem (Meropenem for injection), Ertapenem (Ertapenem for injection), and Doripenem (Doripenem for injection) commercially available
(§4) Experimental method: the agar dilution method, by reference to Methodology of Pharmacological Experiment (XU Shuyun et al, published by the Peoples Medical Publishing House, 1st Edition, August, 1982; 3rd Edition, 5th printing, January 2002, p 1659-1660).

The test system of a further data set is Enterobacter cloacae. The description is as above. The settings on record: clinically isolated strains, Gram-negative, agar dilution, read-out: MIC90 Enterobacter cloacae. In kind it is cell-based.
Description: as §1, §2, §3, §4
On the technique in general: In agar dilution the substance is mixed into plates at graded concentrations.

The next data set has as its system Escherichia coli. The data set is described as above. In kind it is cell-based. The conditions noted are these: clinically isolated strains, Gram-negative, read-out: MIC90 E. coli.
Description: as §1, §2, §3, §4

Another data set concerns Hemophilus influenza. The data set is described as above. In kind it is cell-based. The settings on record: clinically isolated strains, Gram-negative, agar dilution; read-out: MIC90 Hemophilus influenza.
Description: as §1, §2, §3, §4

The test system of data set [1] is Klebsiella pneumonia (producing ESBL). Described as above. Format: cell-based. The settings on record: Klebsiella pneumoniae; clinically isolated strains (producing ESBL), Gram-negative, agar dilution; read-out: MIC90 Klebsiella pneumonia.
Description: as §1, §2, §3, §4

Another data set has as its system Morganella morganii. The data set is described as above. In kind it is cell-based. The conditions noted are these: clinically isolated strains, Gram-negative.
Description: as §1, §2, §3, §4

A further data set relates to Proteus mirabilis. Described as above. In kind it is cell-based. The settings on record: clinically isolated strains, Gram-negative, agar dilution, read-out: MIC90 Proteus mirabilis.
Description: as §1, §2, §3, §4

Another data set deals with Pseudomonas aeruginosa. The description is as above. Format: cell-based. The conditions noted are these: clinically isolated strains, Gram-negative.
Description: as §1, §2, §3, §4

Another data set deals with Serratia marcescens. Described as above. Format: cell-based. The conditions noted are these: clinically isolated strains, Gram-negative, agar dilution, read-out: MIC90 Serratia marcescens.
Description: as §1, §2, §3, §4

Data set [2] relates to methicillin-resistant staphylococcus aureus (MRSA). Described as above. In kind it is cell-based. The settings on record: clinically isolated strains, Gram-positive, read-out: MIC90 S. aureus MRSA.
Description: as §1, §2, §3, §4

Data set [3] concerns methicillin-resistant staphylococcus epidermidis (MRSE). The data set is described as above. In kind it is cell-based. The settings on record: clinically isolated strains, Gram-positive, read-out: MIC90 S. epidermidis MRSE.
Description: as §1, §2, §3, §4

For data set [4], the system named is methicillin-sensitive staphylococcus aureus (MSSA). The description is as above. In kind it is cell-based. The settings on record: clinically isolated strains, Gram-positive, agar dilution, read-out: MIC90 S. aureus MSSA.
Description: as §1, §2, §3, §4

Data set [5] relates to methicillin-sensitive staphylococcus epidermidis (MSSE). Described as above. In kind it is cell-based. The conditions noted are these: clinically isolated strains, Gram-positive, agar dilution, read-out: MIC90 S. epidermidis MSSE.
Description: as §1, §2, §3, §4

Data set [6] deals with penicillin-resistant streptococcus pneumoniae (PRSP). The description is as above. In kind it is cell-based. The settings on record: clinically isolated strains, Gram-positive, read-out: MIC90 S. pneumoniae PRSP.
Description: as §1, §2, §3, §4

Data set [7] deals with penicillin-sensitive streptococcus pneumoniae (PSSP). The description is as above. In kind it is cell-based. The settings on record: clinically isolated strains, Gram-positive, read-out: MIC90 S. pneumoniae PSSP.
Description: as §1, §2, §3, §4

A further data set concerns streptococcus pyogenes. The data set is described as above. In kind it is cell-based. The settings on record: clinically isolated strains, Gram-positive, read-out: MIC90 S. pyogenes.
Description: as §1, §2, §3, §4

Data set [8] in a line: Pharmacokinetic study of the compounds in SD rat (intravenous injection). In kind it is in vivo, SD male rats. The conditions noted are these: SD male rats, intravenous injection 10 mg/kg, plasma, X ± SD, n = 3, read-out: t1/2 (half lives) (converted). On the procedure: Test drugs: the compound 1, 6, 8 and 9 prepared in the examples
Control drugs: Meropenem (Meropenem for injection), commercially available; Doripenem (Doripenem for Injection).
Internal standard substance: Warfarin, a white powder, purity 99%, batch number: 0072-8501, provided by Shanghai Institute for Drug Control.
Drug formulation: the test drugs were formulated before use by being dissolved in physiological saline to make a final concentration of 5 mg/mL for intravenous injection.
Test animal: SD male rats, weight: 200˜250 g, purchased from SHANGHAI SLAC LABORATORY ANIMAL CO. LTD.
Drug administration: The SD male rats were randomly divided into five groups with 3 in each group, and given the drugs by intravenous injection at a dose of 10 mg/kg. The animals were weighed before administration.
Collection of Samples: Zero time was marked before administration; 0.5 mL of blood was respectively sampled from orbit venous plexus at 5 min, 15 min, 30 min, 45 min, 1 h, 2 h, 4 h, 6 h, 8 h, 24 h after administration into heparinized centrifuge tubes. The samples were centrifuged for 6 minutes at 8000 rpm and the supernatant plasma was separated. The plasma was frozen at −20° C. for LC-MS/MS analysis.
Chromatographic conditions: column: Gemini C6-Phenyl (50 mm×4.6 mm, 5 μm); mobile phase: 0.1% of formic acid-water-acetonitrile (5:35:60, v/v/v); flow rate: 1 mL/min; column temperature: 35-40° C.; injection volume: 5 μL; split ratio: 1/5.
Mass spectrometer conditions: scanning mode: cation multiple reactions monitoring (MRM); ion source: electrospray ionization (ESI); Nebulize gas: 8 L/min; Curtain gas: 8 L/min; Collision gas: 4 L/min; Ionspray voltage: 4500 v; Temperature: 400° C./500° C.
Preparation of the Standard Curve and Quality-Control Sample: a Suitable Amount of the test drug was weighed precisely and then formulated into a stock solution (2.6 mg/mL) with ultrapure water. The stock solution was diluted with methanol to obtain a series of working solutions in a concentration of 25000, 5000, 2500, 500, 250 and 50 ng/mL, respectively. 100 μL of plasma samples were separately added into 20 μL of said working solutions to obtain the calibration solutions in a concentration of 5000, 1000, 500, 100, 50 and 10 ng/mL. By the same method, the quality-controlled sample solutions in a concentration of 4000, 800 and 20 ng/mL can be prepared. A standard curve was obtained by chromatographic analysis of the samples.
Sample preparation: 20 μL of acetonitrile and 200 μL (200 ng/mL) of Warfarin in acetonitrile were added into 100 μL of plasma sample, then spun for 1 minute and centrifuged for 5 minutes at 15000 rpm. 100 μL of the supernatant was taken, where 3 μL aliquot of the supernatant was used for the LC/MS/MS analysis.
Dosing concentration: The accuracy of the drug concentration in dosing solution for intravenous injection was 103.2%, determined by analysis of the formulated drugs using HPLC and comparison with the standards.
Data analysis: The drug concentration in plasma would be considered as zero if under the detection limit (10 ng/mL). The pharmacokinetics parameters were calculated by the non-compartment model using Winnonlin Professional 5.2 pharmacokinetics software.
Pharmacokinetics: The pharmacokinetics parameters and drug concentration-time curve were obtained by measuring the plasma drug concentration at different time points.

For data set [9] the following is noted: cited from earlier work.

Values after ≈ are worked out from the molar mass of the structure shown.

As to `C[C@@H](O)[C@H]1C(=O)N2C(C(=O)O)=C(S[C@@H]3CN[C@H](C(=O)N(C)C)C3)[C@H](C)[C@H]12` [meropenem, Meropenem, reference compound], the MIC90 in the data set on Citrobacter freundii amounted to 0.063 µg/mL (≈ 0.164 µM); in the data set with Enterobacter cloacae, 1 µg/mL (≈ 2.61 µM); with Escherichia coli, 0.032 µg/mL (≈ 0.0834 µM); in the data set on Hemophilus influenza it was 0.25 µg/mL (≈ 0.652 µM); in [1], 0.5 µg/mL (≈ 1.3 µM); against Morganella morganii it was 0.063 µg/mL (≈ 0.164 µM). Also, the MIC90 in the data set on Proteus mirabilis was determined as 0.125 µg/mL (≈ 0.326 µM); in the data set with Pseudomonas aeruginosa, 16 µg/mL (≈ 41.7 µM); in the data set with Serratia marcescens, 0.125 µg/mL (≈ 0.326 µM); in data set [2], 64 µg/mL (≈ 167 µM); in data set [3] it was 32 µg/mL (≈ 83.4 µM); in [4], 0.25 µg/mL (≈ 0.652 µM). The MIC90 in data set [5] is 0.25 µg/mL (≈ 0.652 µM); in [6], 1 µg/mL (≈ 2.61 µM); in data set [7] it was 0.016 µg/mL (≈ 0.0417 µM); with streptococcus pyogenes, 0.008 µg/mL (≈ 0.0209 µM). Moreover, the half-life in data set [8] is 7.2 ± 0.6 min. Moreover, the “half-lives in human body” value in data set [9] is on record as “about 1 h”.
